According to patent US20080280810A1, “PEPTIDES HAVING AFFINITY FOR BODY SURFACES” (priority 2006, published 2008):
One block for each molecule: values may come before it.

Legend:
[1] = Phage ELISA, bovine polished enamel binding assay; conditions: over 10^10 pfu purified phage, anti-M13 HRP conjugate, TMB, no phage control 0.193
Experimental: (§1) A total of 11 selected phage candidates (Example 32) was used in a phage ELISA experiment. Purified phage lysates were used for binding to the enamel blocks using an anti-M13 phage antibody conjugated to horseradish-peroxidase, followed by the addition of chromogenic agent TMB, obtained from Pierce Biotechnology (Rockford, Ill.). The plates were read at A450 nm.
(§2) For each phage candidate to be tested, the polished and unpolished enamel blocks were incubated for 1 h at room temperature with 200 μL of blocking buffer, consisting of 2% non-fat dry milk (Schleicher & Schuell, Inc.) in TBS. The blocking buffer was removed by aspirating the liquid out of each tube. The tube was rinsed 6 times with wash buffer consisting of TBST-0.05%. The wells were filled with 200 μL of TBST-0.5% containing 1 mg/mL BSA and then 10 μL (over 10^10 pfu) of purified phage stock was added. The samples were incubated at room temperature for 60 min with slow shaking. The non-binding phage was removed by washing 6 times with TBST-0.5%. Then, 100 μL of horseradish peroxidase/anti-M13 antibody conjugate (Amersham USA, Piscataway, N.J.), diluted 1:500 in the blocking buffer, was added and incubated for 1 h at room temperature. The conjugate solution was removed and was washed 6 times with TBST-0.5%. TMB substrate (200 μL), obtained from Pierce Biotechnology (Rockford, Ill.) was added to each well and the color was allowed to develop for 5 to 30 min, typically for 10 min, at room temperature. Then, stop solution (200 μL of 2 M H2SO4) was added to each well and the solution was transferred to a 96-well plate and the A450 was measured using a microplate spectrophotometer (Molecular Devices, Sunnyvale, Calif.). BoEn means bovine enamel and BoEn P means polished bovine enamel.

[2] = Phage ELISA, bovine enamel binding assay; conditions: over 10^10 pfu purified phage, anti-M13 HRP conjugate, TMB, no phage control 0.112
Experimental: as §1, §2

[3] = Color retention after shampoo treatment, peptide as sealant with Acid Red 33 dye; design: species or system human; conditions: 0.50 wt % Acid Red 33, peptide 0.25 wt %, 30 min contact, after one shampoo treatment; vs uncolored hair; larger = better color retention; dye alone 19.63
Experimental: The peptides used in this Example were prepared as described in Examples 1-3. The color retention was quantified using a spectrophotometric measurement technique.
A peptide given as SEQ ID NO:41, SEQ ID NO:42, or SEQ ID NO:43 (38 mg), produced via fermentation as described in Examples 1-3, was added to 15 g of an aqueous 0.50 wt % solution of Acid Red 33 (Abbey Color, Philadelphia, Pa.) and the solution was allowed to stir for 1 h. A natural white hair tress (1 cm wide, potted, International Hair Importers & Products Inc., Bellerose, N.Y.) was inserted into a 15 mm×125 mm test tube and 13 mL of the peptide/dye mixture was injected into the test tube. The hair tress was immersed in contact with the colorant solution for 30 min and the colorant solution was agitated using a magnetic stirrer. The tress was removed, allowed to drip dry, and then air dried for 30 min.
The hair tress was then subjected to a water rinse using copious amounts of deionized water, followed by a shampoo treatment with embrocation for 30 seconds. The shampoo treatment involved the application of Pantene Pro-V Sheer Volume shampoo (Proctor & Gamble, Cincinnati, Ohio) to the hair as follows. A quarter-sized drop of the shampoo was distributed evenly over the hair tress and then was massaged aggressively into the hair for 30 sec, after which the hair tress was rinsed with water to remove the shampoo. The hair tress was then dried at room temperature. The entire procedure described above was repeated without the addition of the hair-binding peptide to serve as a control.
The color intensity after the shampoo treatment was measured using an X-Rite® SP78™ Sphere Spectrophotometer (X-Rite, Inc., Grandville, Mich.), by placing the colored hair sample into the photosensor and calculating L*, a* and b* parameters representing the photometer response. An initial baseline L* value was measured for the uncolored hair and all measurements were the average of three individual determinations. Delta E values were calculated using equation 1 below: […]

[4] = Co-application of multi-block peptide with semi-permanent dye (Arianor Ebony), color retention; design: species or system human; key: ΔE of peptide sample minus peptide-free control; larger = better retention; conditions: difference in Delta E between peptide sample and peptide free control after 3 embrocation cycles (about 12 manual shampoos); pH 8.5-9.0; >2 benefit, >4 substantial benefit
Experimental: (§3) A 0.5% aqueous solution of Arianor Ebony (Sensient Technologies Corp, Milwaukee, Wis.) containing 3% benzyl alcohol and 0.05% diazolidinyl urea (biocide) was prepared. Dye insolubles were removed by filtration and the pH of the dye solution was adjusted to 8.50-9.0, using ethanolamine.
(§4) Approximately 1 mL of the dye solution was added to selected wells of a 24-well plate (Thomson Instrument Co., Oceanside, Calif.; part # 931565). A multi-block peptide (see Table 12) was dissolved in a solution consisting of 3 wt % benzyl alcohol and 95 wt % water to yield a peptide concentration of 2 wt % or approximately 20 mg/mL. The pH was adjusted to 8.5-9.0 using ethanolamine. The peptide solution was then pipetted into test wells containing dye solution in the amount of 1 mL or 0.2 mL respectively. The total volume in each test well was then adjusted to 2 mL where necessary using 3% aqueous benzyl alcohol (pH adjusted to 8.5-9.0 with ethanolamine). Peptide free controls consisted of 1 mL of dye solution diluted to 2 mL with the pH adjusted aqueous benzyl alcohol solution.
(§5) Baseline […] readings were made on one inch long tresses (see below) using an X-RITE® SP78™ Sphere Spectrophotometer (X-Rite, Inc., Grandville, Mich.), by placing the hair tress into the photosensor and calculating L*, a* and b* parameters representing the photometer response. All measurements were the average of three individual determinations.
(§6) The tresses (potted on one end with resin) of natural white, 85% gray or regular bleached hair (International Hair Importers and Products, Bellerose, N.Y.) were immersed in the peptide/dye solution and the entire well plate was agitated on a VORTEX-GENIE® 2 Mixer (Scientific Industries, Bohemia, N.Y.) at a speed setting of 1 for 30 minutes. The tresses were removed from the wells, rinsed for 30 seconds under flowing deionized water and then air dried.
(§7) The following complement of beads was then added to each well containing a hair tress: (8 beads in all; 4 Novagen Coli Rollers Plating Beads—sterilized (EMD Biosciences, San Diego, Calif.; Catalog No. 71013), 2 BioSpec 6.35 mm glass beads (BioSpec Products, Bartlesville, Okla.; Catalog No. 11079635), and 2 BioSpec 3.2 mm Stainless Steel Bead (Catalog No. 11079132ss).
(§8) Then 2.5 mL of aqueous 50% Pantene Pro V® shampoo (Proctor & Gamble Co., Cincinnati, Ohio) was pipetted into each well. The plate was placed on a VWR® VX-2500 Multi-tube Vortexer (VWR, West Chester, Pa.) for 5 minutes to simulate shampooing with embrocation. The hair tresses were then rinsed under flowing deionized water and air dried. This cycle was repeated two more times except that the length of time was 10 minutes for both subsequent embrocation cycles. (This treatment was previously determined to simulate approximately 12 manual shampoo cycles.) At the conclusion of the third embrocation cycle L*, a* and b* values were measured and Delta E values (ΔE) were calculated using equation 1 below:
(§9) where L*=the lightness variable and a* and b* are the chromaticity coordinates of CIELAB colorspace as defined by the International Commission of Illumination (CIE) (Minolta, Precise Color Communication—Color Control From Feeling to Instrumentation, Minolta Camera Co., 1996).
(§10) The Delta E value (ΔE) indicates color retention relative to the non-dyed hair and larger Delta E values indicate better performance. Values listed in the table represent the difference in Delta E values between the peptide-containing sample and the peptide free control. This difference is indicative of color retention after shampoo or water rinse treatments and positive values indicate better performance relative to the peptide free controls (Table 12).

[5] = as above; design: species or system human; conditions: difference in Delta E between peptide sample and peptide free control after 3 embrocation cycles (about 12 manual shampoos); pH 8.5-9.0; >2 benefit, >4 substantial benefit
Experimental: as §3, §4, §5, §6, §7, §8, §9, §10

[6] = Charged multi-block peptide applied to dyed hair (Arianor Sienna Brown, Basic Brown 17) as protective sealant, color loss; design: species or system human; key: ΔE color loss vs peptide-free control; ≥3 units = meaningful difference
Experimental: A 0.5% aqueous Arianor Sienna Brown (Basic Brown 17; Sensient Technologies Corp, Milwaukee, Wis.) solution, containing 3% benzyl alcohol and 0.05% diazolidinyl urea (biocide) was prepared. This dye solution was divided into two equal volumes, one unmodified at pH4 and a second portion adjusted to pH ranged from 8.50 to 9.0, using ethanolamine.
Minitresses (1 inch long) of natural white hair (International Hair Importers and Products, Bellerose, N.Y.) were immersed into the acidic or basic dye solutions for 30 minutes, water rinsed and then air dried overnight. The tresses were then cut into individual sections weighing 30-75 mg each. L*, a*, b* values for individual dyed hair tresses were then measured using a spectrophotometer.
Aqueous peptide solutions varying in concentration were adjusted by addition of ethanolamine to pH […] or made slightly basic (pH 8.5-9.0). The 3% benzyl alcohol diluent was also pH adjusted in the same fashion.
as §7, with “Each cavity of a well plate (Thomson Instrument Co. part no. 931565, 24-10 ml wells), contained the assortment” for “The following complement”, “beads” for “beads was then added to each well containing a hair tress:”
Target peptide and diluent were added using an automatic pipette. Controls without peptide were made using pH-adjusted diluent only. After several minutes of mixing (VORTEX-GENIE® 2, Scientific Industries, Bohemia, N.Y.) a small dyed hair tress was added to each well and stirred for 30 minutes on the vortex mixer. When stirring was complete, the hair tresses were removed from the wells and rinsed under running deionized water for 20-30 seconds.
The wet hair tresses were inserted into a modified well plate into which holes had been drilled to allow them to be air dried. Once the tresses were dried, colorimetric readings were taken for color loss after water rinse. Hair tresses were reinserted into their respective wells along with beads and 2.5 mL of aqueous 50% Pantene Pro V® shampoo was pipetted onto the hair. The plate was placed into a VWR® VX-2500 Multi-tube Vortexer (VWR, West Chester, Pa.) for 5-15 minutes to simulate shampooing with embrocation. The hair tresses were then rinsed under flowing deionized water and air dried. This cycle was repeated according to the number of simulated embrocation cycles desired. Colorimetric data for color loss was compiled and plotted against peptide free controls. A difference of at least 3 Delta E units verses controls was judged to be sufficient for differentiating peptide performance verses peptide free controls.

Molecule: AANPHTEWDRDAFQLAMPPK [BoEn 1]
O.D. at 450 nm [1]: 1.402

Molecule: KF11-GGG-GHGHQKQHGLGHGHKHGHGHGHGHGK (PNTSQLSTGGGGHGHQKQHGLGHGHKHGHGHGHGHGK; Peptide having affinity for hair) [HC 81]
Delta E [3]: 31.57
ΔE Retention Ebony Dye Regular Bleached Hair [4]: −0.1
ΔE Retention Ebony dye with Natural White Hair [4]: 0.6
ΔE Retention Ebony Dye with 85% Gray Hair [5]: 7.58

Molecule: LNDQRKPGPPTMPTHSPAVG [BoEn 5]
O.D. at 450 nm [1]: 0.944

Molecule: NTCATSPNSYTCSN [BoEn 6]
O.D. at 450 nm [1]: 2.38

Molecule: SDCTAGLVPPLCAT [BoEn 7]
O.D. at 450 nm [1]: 0.892

Molecule: SSNYNYNYNYQYSSR (Peptide having affinity for hair) [Dye-1, reference compound]
ΔE Loss ([6]; pH 3.9, 12 shampoo equivalents): 14

Molecule: SSNYNYNYNYQYSSR-EGEGER (SSNYNYNYNYQYSSREGEGER; Peptide having affinity for hair) [Dye-1 Anionic]
ΔE Loss ([6]; pH 4.5, 12 shampoo equivalents): 1.93
ΔE Loss ([6]; pH 8.8, 12 shampoo equivalents): 0.34

Molecule: SSNYNYNYNYQYSSR-KRKRKD (SSNYNYNYNYQYSSRKRKRKD; Peptide having affinity for hair) [Dye-1 Cationic]
ΔE Loss ([6]; pH 4.5, 25 shampoo equivalents): 6
ΔE Loss ([6]; pH 8.7, 25 shampoo equivalents): 3.22

Molecule: VGTMKQHPTTTQPPRVSATN [BoEn 9]
O.D. at 450 nm [1]: 0.568

B1: PG-PMMA4A-GAG-PMMA4A-GGSGPGSGG-KF11-GGG-KF11-GGPKK (peptide)
chain: PGHTHHDTHKPWPTDAHRNSSVGAGHTHHDTHKPWPTDAHRNSSVGGSGPGSGGNTSQLSTGGGNTSQLSTGGPKK
modifications: Peptide having affinity for hair
ΔE Loss ([6]; pH 5.1, 12 shampoo equivalents): 11.56
ΔE Loss ([6]; pH 8.8, 12 shampoo equivalents): 6.95

B2: PG-PMMA9-GAG-PMMA9-GGSGPGSGG-KF11-GS(KGGGS)4-KF11-GGPWKK (peptide)
chain: PGIDTFYMSTMSHSGAGIDTFYMSTMSHSGGSGPGSGGNTSQLSTGSKGGGSKGGGSKGGGSKGGGSNTSQLSTGGPWKK
modifications: Peptide having affinity for hair
ΔE Loss ([6]; pH 5.7, 12 shampoo equivalents): 11.41

The next lines start with the values.

O.D. at 450 nm [2]: 0.641
Molecule: EPPTRTRVNNHTVTVQAQQH [BoEn P2]

O.D. at 450 nm [2]: 0.665
Molecule: GYCLRGDEPAVCSG [BoEn P3]

O.D. at 450 nm [2]: 0.797
Molecule: NFCETQLDLSVCTV [BoEn P5]

O.D. at 450 nm [2]: 0.83
Molecule: NTCQPTKNATPCSA [BoEn P6]

O.D. at 450 nm [2]: 2.02
Molecule: THNMSHFPPSGHPKRTAT [BoEn P8]

O.D. at 450 nm [1]: 3.942
Molecule: YSETPNDQKPNPHYKVSGTK [BoEn 10]
